System: Metabolic Syndrome cases
Assay: Clinical study in diagnosed Metabolic Syndrome cases
Format: in vivo, human
Protocol: The study population consisted of 128 diagnosed Metabolic Syndrome cases (76 Men and 52 Women), aged 52.81±9.68 years at study entry. The cases were diagnosed as per criteria given by WHO for classification and diagnosis of Metabolic Syndrome.
After preliminary screening the subjects showing association with 3 or more than 3 above factors were selected. The clinical trial was conducted in three groups—
44 cases were treated with Ayurvedic formulation.
Body mass index (BMI) was calculated following formula {weight (kg)÷ height (m2)} and anthropometer was used for circumference measurement. Lipid profile including triglyceride was estimated by standard laboratory kits. TNF-[…], interleukin-6 was measured by ELISA kit, adiponectin by radioimmunoassay kit. CRP by kit for quantitative nephelometric determination of CRP in human serum or plasma by Turbox/Turbox analyzer and ELISA activity assay kit for Leptin level. Subjects suffering from any other disease known to affect the study parameters were excluded from the series. Upon recruitment all subjects gave informed written consent.

SMILES: CCCCCCCCCCC[C@@H](C[C@@H]1OC(=O)[C@H]1CCCCCC)OC(=O)[C@H](CC(C)C)NC=O [Conventional drug, Orlistat]
- HbA1c (After 3 months): 5.93%
- PAI-1 (After 3 months): 37.42 ng/mL
- tPA-1 (After 3 months): 19.45 ng/mL
- Adiponectin (After 6 months): 7.39 µg/mL
- Apolipo (B) (After 6 months): 152.87 mg/dL
- Diastolic blood pressure (After 6 months): 86.24 mmHg
- Endothelin (After 6 months): 988.73 pg/mL
- Fasting blood glucose (After 6 months): 108.42 mg/dL
- HDL-c (After 6 months): 43.02 mg/dL
- HbA1c (After 6 months): 5.24%
- Interleukin-6 (After 6 months): 2.12 pg/mL
- LDL-c (After 6 months): 114.32 mg/dL
- Leptin (After 6 months): 25.73 µg/L
- PAI-1 (After 6 months): 32.98 ng/mL
- Postprandial blood glucose (After 6 months): 179.45 mg/dL
- Systolic blood pressure (After 6 months): 124.87 mmHg
- TNF-α (After 6 months): 488.90 pg/mL
- Total cholesterol (After 6 months): 216.92 mg/dL
- Triglycerides (After 6 months): 287.93 mg/dL
- hs CRP (After 6 months): 3.64 mg/L
- tPA-1 (After 6 months): 18.46 ng/mL
- CD36 (Gender F, After 3 months): 156.42 ng/mL
- CD36 (Gender F, After 6 months): 155.90 ng/mL
- CD36 (Gender F, Initial): 142.90 ng/mL
- CD36 (Gender M, After 3 months): 173.64 ng/mL
- CD36 (Gender M, After 6 months): 196.22 ng/mL
- Adiponectin (Initial): 6.92 µg/mL
- Apolipo (B) (Initial): 188.73 mg/dL
- Diastolic blood pressure (Initial): 89.04 mmHg
- Endothelin (Initial): 1286.93 pg/mL
- Fasting blood glucose (Initial): 136.42 mg/dL
- HDL-c (Initial): 41.62 mg/dL
- HbA1c (Initial): 6.82%
- Interleukin-6 (Initial): 2.25 pg/mL
- LDL-c (Initial): 139.72 mg/dL
- Leptin (Initial): 36.42 µg/L
- PAI-1 (Initial): 40.12 ng/mL
- Postprandial blood glucose (Initial): 231.68 mg/dL
- Systolic blood pressure (Initial): 136.68 mmHg
- TNF-α (Initial): 622.45 pg/mL
- Total cholesterol (Initial): 247.90 mg/dL
- Triglycerides (Initial): 354.86 mg/dL
- hs CRP (Initial): 4.93 mg/L
- tPA-1 (Initial): 21.23 ng/mL

From patent publication US9381224B2, “Plant based formulation for the prevention and management of metabolic syndrome and cardiovascular disease mortality risk” (priority 2014, dated 2016)
